The text below walks through data of patent US20230373939A1 (VERTEX PHARMACEUTICALS INCORPORATED, priority 2020, published 2023).

SMILES strings stand for the structures. pEC50: −log10 of the molar value. Read-outs that look alike come from different tables or passages of the source. Bounds are passed on as bounds.

In this assay the target is T1, F508del in NIH 3T3 cells (Homo sapiens, UniProt P13569, DEL508-508).
T1 construct: expressed in transfected cells
Description: 3T3 assay: membrane potential optical assay for F508del correction. The following applies: for pEC50: read-out: 3T3 EC50. Type of assay: cell-based. From the text: 1. Membrane Potential Optical Methods for Assaying F508del Modulation Properties of Compounds
The assay utilizes fluorescent voltage sensing dyes to measure changes in membrane potential using a fluorescent plate reader (e.g., FLTPR III, Molecular Devices, Inc.) as a readout for increase in functional F508del in NIH 3T3 cells. The driving force for the response is the creation of a chloride ion gradient in conjunction with channel activation by a single liquid addition step after the cells have previously been treated with compounds and subsequently loaded with a voltage sensing dye.
2. Identification of Corrector Compounds
To identify correctors of F508del, a single-addition HTS assay format was developed. This HTS assay utilizes fluorescent voltage sensing dyes to measure changes in membrane potential on the FLIPR III as a measurement for increase in gating (conductance) of F508del in F508del NUT 3T3 cells. The F508del NUT 3T3 cell cultures were incubated with the corrector compounds at a range of concentrations for 18-24 hours at 37° C., and subsequently loaded with a redistribution dye. The driving force for the response is a Cl^− ion gradient in conjunction with channel activation with forskolin in a single liquid addition step using a fluorescent plate reader such as FLIPR III.
Bath Solution #1: (in mM) NaCl 160, KCl 4.5, CaCl2 2, MgCl2 1, HEPES 10, pH 7.4 with NaOH.
Chloride-free bath solution: Chloride salts in Bath Solution #1 (above) are substituted with gluconate salts.
NIH3T3 mouse fibroblasts stably expressing F508del were used for optical measurements of membrane potential. The cells were maintained at 37° C. in 5% CO2 and 90% humidity in Dulbecco's modified Eagle's medium supplemented with 2 mM glutamine, 10% fetal bovine serum, 1×NEAA, b-ME, 1×pen/strep, and 25 mM HEPES in 175 cm^2 culture flasks. For all optical assays, the cells were seeded at ˜20,000/well in 384-well Matrigel-coated plates. For the correction assays, the cells were cultured at 37° C. with and without compounds for 16-24 hours.

Setting [1] is: NIH3T3, read-out: 3T3 Max Activity (%).
The mark [2] stands for this setting: NIH3T3, NIH 3T3 cells, F508del, read-out: 3T3 Max Activity (%).

T1 sequence (P13569 with tags, fused parts or gaps DEL508-508): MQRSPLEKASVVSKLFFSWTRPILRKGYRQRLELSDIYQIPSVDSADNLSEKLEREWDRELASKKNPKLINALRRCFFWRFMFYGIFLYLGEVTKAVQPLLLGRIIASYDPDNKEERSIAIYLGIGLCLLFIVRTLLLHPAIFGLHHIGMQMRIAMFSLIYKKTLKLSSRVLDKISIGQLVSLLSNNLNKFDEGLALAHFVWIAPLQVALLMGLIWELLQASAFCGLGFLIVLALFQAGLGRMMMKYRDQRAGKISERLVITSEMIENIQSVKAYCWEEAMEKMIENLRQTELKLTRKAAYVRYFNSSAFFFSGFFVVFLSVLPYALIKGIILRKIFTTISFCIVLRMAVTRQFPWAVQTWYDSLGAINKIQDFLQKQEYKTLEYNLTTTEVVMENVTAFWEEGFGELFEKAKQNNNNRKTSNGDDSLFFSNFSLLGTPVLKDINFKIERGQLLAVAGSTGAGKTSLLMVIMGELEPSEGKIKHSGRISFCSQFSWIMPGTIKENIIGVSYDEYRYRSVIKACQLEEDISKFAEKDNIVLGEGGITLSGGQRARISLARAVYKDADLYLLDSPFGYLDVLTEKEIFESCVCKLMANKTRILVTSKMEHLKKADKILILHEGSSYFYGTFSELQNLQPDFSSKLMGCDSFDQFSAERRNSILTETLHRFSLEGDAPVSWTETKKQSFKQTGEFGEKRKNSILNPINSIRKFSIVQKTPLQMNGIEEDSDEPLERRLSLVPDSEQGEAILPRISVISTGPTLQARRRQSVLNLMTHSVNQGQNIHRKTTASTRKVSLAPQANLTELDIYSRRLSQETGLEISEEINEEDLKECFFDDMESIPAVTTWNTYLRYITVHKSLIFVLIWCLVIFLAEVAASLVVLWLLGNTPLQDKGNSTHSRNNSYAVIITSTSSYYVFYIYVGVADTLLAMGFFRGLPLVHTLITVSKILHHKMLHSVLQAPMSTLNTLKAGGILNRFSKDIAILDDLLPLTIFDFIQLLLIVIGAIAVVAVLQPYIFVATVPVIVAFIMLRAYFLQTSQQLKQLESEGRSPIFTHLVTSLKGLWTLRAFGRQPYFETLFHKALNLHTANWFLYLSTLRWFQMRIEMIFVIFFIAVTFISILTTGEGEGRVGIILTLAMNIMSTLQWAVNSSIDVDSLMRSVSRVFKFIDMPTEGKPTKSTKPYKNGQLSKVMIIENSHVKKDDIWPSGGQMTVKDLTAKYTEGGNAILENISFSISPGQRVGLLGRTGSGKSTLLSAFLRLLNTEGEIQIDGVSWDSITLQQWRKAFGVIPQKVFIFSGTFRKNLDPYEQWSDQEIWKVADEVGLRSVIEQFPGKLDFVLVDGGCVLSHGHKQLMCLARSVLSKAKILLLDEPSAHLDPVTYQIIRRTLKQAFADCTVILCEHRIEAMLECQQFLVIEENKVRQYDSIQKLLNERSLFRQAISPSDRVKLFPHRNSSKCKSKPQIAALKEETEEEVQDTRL

As for `O=S(=O)(Nc1onc(-c2ccc(Cl)cc2)c1-c1ccc(Cl)cc1)c1ccccc1` [Compound 1, N-[3,4-bis(4-chlorophenyl)isoxazol-5-yl]benzenesulfonamide], the Emax under setting [1] was 30 to 60%. In addition, the negative logarithm of the EC50 (pEC50) (usually the EC50 on a negative log10 scale, so that one unit is a factor of ten) (NIH 3T3 cells, F508del) was 5.52 to 6.00.

Consider `CCCc1oc(NS(=O)(=O)c2ccccc2)nc1-c1ccccc1` [Compound 2, N-(4-phenyl-5-propyl-oxazol-2-yl)benzenesulfonamide], for which the Emax under setting [1] was 30 to 60%. The negative-log EC50 (pEC50) (NIH 3T3 cells, F508del) is 4.52 to 5.52.

As to `Cc1ccc(-c2nc(NS(=O)(=O)c3ccccc3)oc2-c2ccc(C)cc2)cc1` [Compound 3, N-[4,5-bis(p-tolyl)oxazol-2-yl]benzenesulfonamide], the Emax under setting [1] was above 60%. In addition, for the setting “NIH 3T3 cells, F508del”, the pEC50 was 5.52 to 6.00.

With `COc1ccccc1Cc1cnc(NS(=O)(=O)c2ccccc2)o1` [Compound 4, N-[5-[(2-methoxyphenyl)methyl]oxazol-2-yl]benzenesulfonamide], the Emax under setting [2] was below 30%.

For the molecule `CCCc1sc(NS(=O)(=O)c2ccccc2)nc1-c1ccc(C)cc1` [Compound 5, N-[5-propyl-4-(p-tolyl)thiazol-2-yl]benzenesulfonamide], the Emax under setting [1] was above 60%. Besides, the pEC50 (NIH 3T3 cells, F508del) is above 6.00.

On to `CCCc1sc(NS(=O)(=O)c2ccccc2)nc1-c1ccc(C)cc1C` [Compound 6, N-[4-(2,4-dimethylphenyl)-5-propyl-thiazol-2-yl]benzenesulfonamide], for which the Emax under setting [1] was above 60%. Further, the pEC50 (NIH 3T3 cells, F508del) is above 6.00.

For the molecule `O=S(=O)(Nc1nc(-c2ccccc2)c(-c2ccccc2)s1)c1ccccc1` [Compound 7, N-(4,5-diphenylthiazol-2-yl)benzenesulfonamide], the Emax under setting [1] was above 60%. Besides, the pEC50 (NIH 3T3 cells, F508del) was 5.52 to 6.00.

With `Cc1ccc(C)c(-c2nc(NS(=O)(=O)c3ccccc3)sc2C)c1` [Compound 8, N-[4-(2,5-dimethylphenyl)-5-methyl-thiazol-2-yl]benzenesulfonamide], the Emax under setting [1] was above 60%. Further, the pEC50 (NIH 3T3 cells, F508del) is above 6.00.

For `Nc1cccc(S(=O)(=O)Nc2nc(-c3ccccc3)c(Cc3ccccc3)s2)c1` [Compound 9, 3-amino-N-(5-benzyl-4-phenyl-thiazol-2-yl)benzenesulfonamide], the Emax under setting [2] lay in the range of 30 to 60%. Moreover, where the note is “NIH 3T3 cells, F508del”, the pEC50 is 5.52 to 6.00.

For `Cc1ccc(-c2nc(NS(=O)(=O)c3ccccc3)sc2-c2ccc(C)cc2)cc1` [Compound 10, N-[4,5-bis(p-tolyl)thiazol-2-yl]benzenesulfonamide], under setting [1], the Emax lay in the range of 30 to 60%. For the same molecule, for the setting “NIH 3T3 cells, F508del”, the pEC50 is above 6.00.

For `O=S(=O)(Nc1nc(-c2ccccc2)c(Oc2ccccc2)s1)c1ccccc1` [Compound 11, N-(5-phenoxy-4-phenyl-thiazol-2-yl)benzenesulfonamide], the Emax under setting [2] was below 30%.

Take `O=S(=O)(Nc1nc(C2CC2)cs1)c1ccccc1` [Compound 12, N-(4-cyclopropylthiazol-2-yl)benzenesulfonamide]: the Emax under setting [2] was below 30%.

As for `COC(=O)c1sc(NS(=O)(=O)c2ccccc2)nc1-c1ccc(C)cc1` [Compound 13, methyl 2-(benzenesulfonamido)-4-(p-tolyl)thiazole-5-carboxylate], the Emax under setting [2] is above 60%. The pEC50 (NIH 3T3 cells, F508del) is 4.52 to 5.52.

With `O=C(NCc1ccccc1)c1sc(NS(=O)(=O)c2ccccc2)nc1-c1ccccc1` [Compound 14, 2-(benzenesulfonamido)-N-benzyl-4-phenyl-thiazole-5-carboxamide], the Emax under setting [2] was in the range of 30 to 60%. For the same molecule, the pEC50 (NIH 3T3 cells, F508del) is 4.52 to 5.52.

As for `CC(C)(C)CCNC(=O)c1sc(NS(=O)(=O)c2ccccc2)nc1-c1ccccc1` [Compound 15, 2-(benzenesulfonamido)-N-(3,3-dimethylbutyl)-4-phenyl-thiazole-5-carboxamide], the Emax under setting [2] was 30 to 60%. Also, for the setting “NIH 3T3 cells, F508del”, the pEC50 is 4.52 to 5.52.

For the molecule `O=S(=O)(Nc1nc(-c2ccc(Cl)cc2)c(S(=O)(=O)c2ccccc2)s1)c1ccccc1` [Compound 16, N-[5-(benzenesulfonyl)-4-(4-chlorophenyl)thiazol-2-yl]benzenesulfonamide], under setting [2], the Emax is 30 to 60%. Further, the pEC50 (NIH 3T3 cells, F508del) is 5.52 to 6.00.

In the case of `CC(C)c1sc(NS(=O)(=O)c2ccccc2)nc1-c1ccccc1` [Compound 17, N-(5-isopropyl-4-phenyl-thiazol-2-yl)benzenesulfonamide], the Emax under setting [2] is above 60%. Further, the pEC50 (NIH 3T3 cells, F508del) is 4.52 to 5.52.

As for `CCCc1sc(NS(=O)(=O)c2ccccc2)nc1-c1cc(C)ccc1C` [Compound 18, N-[4-(2,5-dimethylphenyl)-5-propyl-thiazol-2-yl]benzenesulfonamide], under setting [2], the Emax was above 60%. Moreover, for the setting “NIH 3T3 cells, F508del”, the pEC50 is above 6.00.

In the case of `CCCc1sc(NS(=O)(=O)c2ccccc2)nc1-c1ccc(OCC)cc1` [Compound 19, N-[4-(4-ethoxyphenyl)-5-propyl-thiazol-2-yl]benzenesulfonamide], the Emax under setting [2] is 30 to 60%. For the same molecule, the pEC50 (NIH 3T3 cells, F508del) was 5.52 to 6.00.

In the case of `CCCc1sc(NS(=O)(=O)c2ccccc2)nc1-c1ccc(OC)cc1` [Compound 20, N-[4-(4-methoxyphenyl)-5-propyl-thiazol-2-yl]benzenesulfonamide], under setting [2], the Emax was above 60%. In addition, under “NIH 3T3 cells, F508del”, the pEC50 was 5.52 to 6.00.

With `CCc1sc(NS(=O)(=O)c2ccccc2)nc1-c1ccccc1` [Compound 21, N-(5-ethyl-4-phenyl-thiazol-2-yl)benzenesulfonamide], under setting [2], the Emax was above 60%. The pEC50 (NIH 3T3 cells, F508del) was 4.52 to 5.52.

For the molecule `Cc1sc(NS(=O)(=O)c2ccccc2)nc1-c1ccc2c(c1)OCCO2` [Compound 22, N-[4-(2,3-dihydro-1,4-benzodioxin-6-yl)-5-methyl-thiazol-2-yl]benzenesulfonamide], the Emax under setting [2] is 30 to 60%. The pEC50 (NIH 3T3 cells, F508del) was 4.52 to 5.52.

As to `Cc1sc(NS(=O)(=O)c2ccccc2)nc1-c1ccccc1` [Compound 23, N-(5-methyl-4-phenyl-thiazol-2-yl)benzenesulfonamide], under setting [2], the Emax was above 60%. Besides, the pEC50 (NIH 3T3 cells, F508del) is 4.52 to 5.52.

Take `CCOC(=O)c1sc(NS(=O)(=O)c2ccccc2)nc1-c1ccccc1` [Compound 24, ethyl 2-(benzenesulfonamido)-4-phenyl-thiazole-5-carboxylate]: the Emax under setting [2] is above 60%. In addition, the pEC50 (NIH 3T3 cells, F508del) is 4.52 to 5.52.

With `COc1ccccc1C1(c2cnc(NS(=O)(=O)c3ccccc3)s2)CC1` [Compound 25, N-[5-[1-(2-methoxyphenyl)cyclopropyl]thiazol-2-yl]benzenesulfonamide], the Emax under setting [1] is above 60%. Further, the negative logarithm of the EC50 (pEC50) (NIH 3T3 cells, F508del) was 4.52 to 5.52.

Turning to `Cc1nc(NS(=O)(=O)c2ccccc2)sc1-c1ccccc1` [Compound 26, N-(4-methyl-5-phenyl-thiazol-2-yl)benzenesulfonamide], under setting [1], the Emax was above 60%. In addition, the pEC50 (NIH 3T3 cells, F508del) was 5.52 to 6.00.

For the molecule `COc1ccc(Cl)cc1Nc1nc(-c2sc(NS(=O)(=O)c3ccccc3)nc2C)cs1` [Compound 27, N-[5-[2-(5-chloro-2-methoxy-anilino)thiazol-4-yl]-4-methyl-thiazol-2-yl]benzenesulfonamide], under setting [1], the Emax fell in the range of 30 to 60%. For the setting “NIH 3T3 cells, F508del”, the pEC50 was 5.52 to 6.00.

`Nc1cccc(S(=O)(=O)Nc2nc(-c3ccccc3)c(Cc3cccc(C(=O)O)c3)s2)c1` [Compound 28, 3-[[2-[(3-aminophenyl)sulfonylamino]-4-phenyl-thiazol-5-yl]methyl]benzoic acid]: the Emax under setting [2] was below 30%.

Take `COc1ccccc1Nc1nc(-c2sc(NS(=O)(=O)c3ccccc3)nc2C)cs1` [Compound 29, N-[5-[2-(2-methoxyanilino)thiazol-4-yl]-4-methyl-thiazol-2-yl]benzenesulfonamide]: under setting [2], the Emax lay in the range of 30 to 60%. Further, the pEC50 (NIH 3T3 cells, F508del) is 4.52 to 5.52.
